Measured values: patent publication US11072608B2, “Pesticidally active heterocyclic derivatives with sulphur containing substituents” (SYNGENTA PARTICIPATIONS AG, priority 2014, dated 2021)

Assays:
[1] = test system: Spodoptera littoralis (Egyptian cotton leaf worm); test: Example B1: activity against Spodoptera littoralis, cotton leaf disc spray; format: in vivo; settings: foliar, 72 h, application rate of 200 ppm, cotton leaf discs, L1 larvae, 3 days after infestation, read-out: control in at least one of the three categories (mortality, anti-feedancy or growth inhibition)
Experimental: Example B1: Activity Against Spodoptera littoralis (Egyptian Cotton Leaf Worm)
Cotton leaf discs were placed on agar in 24-well microtiter plates and sprayed with aqueous test solutions prepared from 10,000 ppm DMSO stock solutions. After drying the leaf discs were infested with five L1 larvae. The samples were assessed for mortality, anti-feedant effect, and growth inhibition in comparison to untreated samples 3 days after infestation. Control of Spodoptera littoralis by a test sample is when at least one of mortality, anti-feedant effect, and growth inhibition is higher than the untreated sample. The following compound gave an effect of at least 80% control in at least one of the three categories (mortality, anti-feedancy or growth inhibition) at an application rate of 200 ppm: P1, P4, P5, P8, P9, P10, P12 and P13.

[2] = test system: Spodoptera littoralis (Egyptian cotton leaf worm); test: Example B2: activity against Spodoptera littoralis, systemic via lettuce on agar; format: in vivo; settings: 144 h, application rate of 12.5 ppm, Spodoptera eggs, 6 days after infestation, read-out: control in at least one of the three categories (mortality, anti-feedancy or growth inhibition)
Source text: Example B2: Activity Against Spodoptera Littoralis (Egyptian Cotton Leaf Worm)
Test compounds were applied by pipette from 10,000 ppm DMSO stock solutions into 24-well plates and mixed with agar. Lettuce seeds were placed on the agar and the multi well plate was closed by another plate which contains also agar. After 7 days the roots have absorbed the compound and the lettuce has grown into the lid plate. The lettuce leafs were now cut off into the lid plate. Spodoptera eggs were pipetted through a plastic stencil on a humid gel blotting paper and the plate closed with it. The samples were assessed for mortality, anti-feedant effect and growth inhibition in comparison to untreated samples 6 days after infestation. The following compound gave an effect of at least 80% control in at least one of the three categories (mortality, anti-feedancy or growth inhibition) at an application rate of 12.5 ppm: P1, P4, P9, P12 and P13.

[3] = test system: Plutella xylostella (diamond back moth); test: Example B3: activity against Plutella xylostella, artificial diet; format: in vivo; settings: 120 h, application rate of 200 ppm, L2 larvae, 5 days after infestation, read-out: effect in at least one of the two categories (mortality or growth inhibition)
Experimental: Example B3: Activity Against Plutella xylostella (Diamond Back Moth)
24-well microtiter plates with artificial diet were treated with aqueous test solutions prepared from 10,000 ppm DMSO stock solutions by pipetting. After drying, the plates were infested with L2 larvae (10 to 15 per well). The samples were assessed for mortality and growth inhibition in comparison to untreated samples 5 days after infestation. The following compound gave an effect of at least 80% in at least one of the two categories (mortality or growth inhibition) at an application rate of 200 ppm: P1, P4, P5, P6, P8, P9, P10, P11, P12 and P13.

[4] = test system: Diabrotica balteata (corn root worm); test: Example B4: activity against Diabrotica balteata, maize sprouts spray; format: in vivo; settings: 96 h, application rate of 200 ppm, L2 larvae, 4 days after infestation, read-out: effect in at least one of the two categories (mortality or growth inhibition)
Experimental: Example B4: Activity Against Diabrotica balteata (Corn Root Worm)
Maize sprouts, placed on an agar layer in 24-well microtiter plates were treated with aqueous test solutions prepared from 10,000 ppm DMSO stock solutions by spraying. After drying, the plates were infested with L2 larvae (6 to 10 per well). The samples were assessed for mortality and growth inhibition in comparison to untreated samples 4 days after infestation. The following compounds gave an effect of at least 80% in at least one of the two categories (mortality or growth inhibition) at an application rate of 200 ppm: P1, P4, P5, P6, P8, P9, P10, P11, P12 and P13.

[5] = test system: Myzus persicae (green peach aphid); test: Example B5: activity against Myzus persicae, sunflower leaf disc spray; format: in vivo; settings: foliar, 144 h, application rate of 200 ppm, sunflower leaf discs, mixed ages, 6 days after infestation
Experimental: Example B5: Activity Against Myzus persicae (Green Peach Aphid)
(§1) Sunflower leaf discs were placed on agar in a 24-well microtiter plate and sprayed with aqueous test solutions prepared from 10,000 ppm DMSO stock solutions. After drying, the leaf discs were infested with an aphid population of mixed ages. The samples were assessed for mortality 6 days after infestation.

[6] = test system: Bemisia tabaci (cotton white fly); test: Example B7: activity against Bemisia tabaci, cotton leaf disc spray; format: in vivo; settings: foliar, 144 h, application rate of 200 ppm, cotton leaf discs, adult white flies, 6 days after incubation
Experimental: Example B7: Activity Against Bemisia tabaci (Cotton White Fly)
Cotton leaf discs were placed on agar in 24-well microtiter plates and sprayed with aqueous test solutions prepared from 10,000 ppm DMSO stock solutions. After drying the leaf discs were infested with adult white flies. The samples were checked for mortality 6 days after incubation.

[7] = test system: Euschistus heros (neotropical brown stink bug); test: Example B8: activity against Euschistus heros, soybean leaf spray; format: in vivo; settings: 120 h, application rate of 200 ppm, N-2 nymphs, 5 days after infestation
Experimental: Example B8: Activity Against Euschistus heros (Neotropical Brown Stink Bug)
Soybean leaf on agar in 24-well microtiter plates were sprayed with aqueous test solutions prepared from 10,000 ppm DMSO stock solutions. After drying the leaf were infested with N-2 nymphs. The samples were assessed for mortality 5 days after infestation.

[8] = test system: Frankliniella occidentalis (western flower thrips); test: Example B10: activity against Frankliniella occidentalis, sunflower leaf disc spray; format: in vivo; settings: foliar, 168 h, application rate of 200 ppm, sunflower leaf discs, mixed ages, 7 days after infestation
Experimental: Example B10: Activity Against Frankliniella occidentalis (Western Flower Thrips)
as §1, with “in” for “in a”, “plates” for “plate”, “10,000” for “10,000 ppm”, “drying” for “drying,”, “a Frankliniella” for “an aphid”, “7” for “6”

[9] = test system: Myzus persicae (green peach aphid); test: Example B9: activity against Myzus persicae, roots of pea seedlings in test solution; format: in vivo; settings: 144 h, test rate of 24 ppm, 6 days
Experimental: Example B9: Activity Against Myzus persicae (Green Peach Aphid)
Roots of pea seedlings infested with an aphid population of mixed ages were placed directly into aqueous test solutions prepared from 10,000 DMSO stock solutions. The samples were assessed for mortality 6 days after placing seedlings into test solutions.

[10] = test system: Thrips tabaci (onion thrips); test: Example B11: activity against Thrips tabaci, sunflower leaf disc spray; format: in vivo; settings: foliar, 144 h, application rate of 200 ppm, sunflower leaf discs, mixed ages, 6 days after infestation
Experimental: Example B11: Activity Against Thrips tabaci (Onion Thrips)
as §1, with “in” for “in a”, “plates” for “plate”, “drying” for “drying,”, “a Thrips” for “an aphid”

SMILES	melting point	percent control (mortality, anti-feedancy or growth inhibition) at 200 ppm [1]	control at 12.5 ppm [2]	percent effect (mortality or growth inhibition) at 200 ppm [3]	percent effect (mortality or growth inhibition) at 200 ppm [4]	mortality at 200 ppm [5]	mortality at 200 ppm [6]	mortality at 200 ppm [7]	mortality at 200 ppm [8]	mortality at 24 ppm [9]	mortality at 200 ppm [10]
CCSc1cc(C2CCCC2)cnc1-c1nc2cc(C(F)(F)F)cnc2n1C [Compound P2, 2-(5-cyclopentyl-3-ethylsulfanyl-2-pyridyl)-3-methyl-6-(trifluoromethyl) imidazo[4,5-b]pyridine]	130 to 132 °C										
CCSc1cc(C2CCCCC2)cnc1-c1nc2cc(C(F)(F)F)cnc2n1C [Compound P3, 2-(5-cyclohexyl-3-ethylsulfanyl-2-pyridyl)-3-methyl-6-(trifluoromethyl) imidazo[4,5-b]pyridine]	148 to 150 °C										
CCS(=O)(=O)c1cc(C2CC2)cnc1-c1nc2cc(C(F)(F)F)cnc2n1C [Compound P4, 2-(5-cyclopropyl-3-ethylsulfonyl-2-pyridyl)-3-methyl-6-(trifluoromethyl) imidazo[4,5-b]pyridine]		≥ 80%	≥ 80%	≥ 80%	≥ 80%	≥ 80%	≥ 80%	≥ 80%	≥ 80%		
CCS(=O)(=O)c1cc(C2CCCC2)cnc1-c1nc2cc(C(F)(F)F)cnc2n1C [Compound P5]		≥ 80%		≥ 80%	≥ 80%	≥ 80%		≥ 80%			
CCS(=O)(=O)c1cc(C2CCCCC2)cnc1-c1nc2cc(C(F)(F)F)cnc2n1C [Compound P6]				≥ 80%	≥ 80%	≥ 80%	≥ 80%	≥ 80%			
CCSc1cc(C2CCC2)cnc1-c1nc2cc(C(F)(F)F)cnc2n1C [Compound P7]	136 to 138 °C										
CCS(=O)(=O)c1cc(C2CCC2)cnc1-c1nc2cc(C(F)(F)F)cnc2n1C [Compound P8]		≥ 80%		≥ 80%	≥ 80%	≥ 80%	≥ 80%	≥ 80%			
CCS(=O)(=O)c1cc(C2(C#N)CC2)cnc1-c1nc2cc(C(F)(F)F)cnc2n1C [Compound P9, 1-[5-ethylsulfonyl-6-[3-methyl-6-(trifluoromethyl)imidazo[4,5-b]pyridin-2-yl]-3-pyridyl]cyclopropanecarbonitrile]		≥ 80%	≥ 80%	≥ 80%	≥ 80%	≥ 80%	≥ 80%	≥ 80%	≥ 80%	≥ 80%	≥ 80%
CCS(=O)(=O)c1cc(C2(C#N)CCC2)cnc1-c1nc2cc(C(F)(F)F)cnc2n1C [Compound P10]		≥ 80%		≥ 80%	≥ 80%	≥ 80%	≥ 80%	≥ 80%			
CCS(=O)(=O)c1cc(C2(C(N)=O)CC2)cnc1-c1nc2cc(C(F)(F)F)cnc2n1C [Compound P11, 1-[5-ethylsulfonyl-6-[3-methyl-6-(trifluoromethyl)imidazo[4,5-b]pyridin-2-yl]-3-pyridyl]cyclopropanecarboxamide]				≥ 80%	≥ 80%	≥ 80%	≥ 80%	≥ 80%	≥ 80%	≥ 80%	
CCS(=O)(=O)c1cc(C2(C(=O)O)CC2)cnc1-c1nc2cc(C(F)(F)F)cnc2n1C [Compound P12, 1-[5-ethylsulfonyl-6-[3-methyl-6-(trifluoromethyl)imidazo[4,5-b]pyridin-2-yl]-3-pyridyl]cyclopropanecarboxylic acid]		≥ 80%	≥ 80%	≥ 80%	≥ 80%	≥ 80%	≥ 80%	≥ 80%			
CCS(=O)(=O)c1cc(C2(C#N)CC2)cnc1-c1nc2cc(SC(F)(F)F)cnc2n1C [Compound P13, 1-[5-ethylsulfonyl-6-[3-methyl-6-(trifluoro-methylsulfanyl)imidazo[4,5-b]pyridin-2-yl]-3-pyridyl]cyclopropanecarbonitrile]		≥ 80%	≥ 80%	≥ 80%	≥ 80%	≥ 80%	≥ 80%	≥ 80%	≥ 80%		≥ 80%
CCS(=O)(=O)c1ccc(C2CC2)nc1-c1nc2cc(C(F)(F)F)cnc2n1C [Compound P14, 2-(6-cyclopropyl-3-ethylsulfonyl-2-pyridyl)-3-methyl-6-(trifluoromethyl)imidazo[4,5-b]pyridine]	163 to 165 °C										
